Measurements reported in patent US6555533B2, “Use of certain substituted caprolactams in treating tumors” (Novartis AG, priority 1998, dated 2003).
Like-named read-outs stand apart in the source and are kept apart here. Marks after values point to notes of the source that are not given here.

Columns and labels:
PC-3 prostate carcinoma = assay: Anchorage Dependent Growth Monolayer Assay (ADGMA), PC-3; assay type: cell-based, human; conditions: Homo sapiens, 72 h; 3-day exposure, MTS readout; read-out: IC50 (average±S.D.) PC-3
Experimental: (§1) As indicated above, all of the compounds of formula I, and their corresponding pharmaceutically acceptable acid addition salts, are anti-tumor agents and are, therefore, useful in inhibiting the growth of various lymphomas, sarcomas, carcinomas, myelomas, and leukemia cell lines.
(§2) The ADGMA compares the number of viable cells following a 3-day exposure to a test compound relative to a number of cells present at the time the test compound was added. […] The absorbance at 490 nm (A490) of the formazan derivative is proportional to the number of viable cells. The IC50 for a test compound is the concentration of compound required to reduce the final cell number to 50% of the final control cell number. If cell proliferation is inhibited, the assay further defines compounds as cytostatic (cell number after 3-day compound incubation >cell number at time of compound addition) or cytotoxic (cell number after 3-day compound incubation <cell number at time of compound addition).
(§3) A549, HCT-116 and PC-3 cells were maintained in RPMI 1640 containing 5% FBS, […], 1 nM β-estradiol, 1 nM testosterone, 100 units/mL penicillin and 100 ug/mL streptomycin.
(§4) Cell lines are trypsinized and counted using a Coulter counter to determine plating densities. Cells are then plated in their respective maintenance media (100 μL/well) in 96 well plates at the following densities: MDA-MB-435, 3,000 cells/well; A549 and HCT-116, 700 cells/well; are PC-3, 2500 cells/well. The number of cells plates as determined in preliminary experiments, results in cell densities of 75-90% of confluency by 4 days after plating. Initial cell densities, assayed one day after plating, are roughly 0.15-0.20 absorbance units greater than the media blank. Ninety-six well plates are seeded on day 0 and the test compounds are added on day 1. A control plate is created for each cell line that receives media only in row A and cells in row B. One day following plating, test compounds are added (in a final volume of 100 μL) to the test plates. Control plates receive 10 μL MTS mixture (prepared fresh on day of addition to cell plates at a ratio of 10 μL of a 0.92 mg/mL solution of PMS to a 190 μL of a 2 mg/mL solution of MTS) and 100 μL media. A490 of control plates is read 4 h after MTS addition to determine initial cell density values for each cell line. Three days after addition of test compound, 10 μL/well of MTS mixture is added to the test plates and A490 is read 4 h later. A490 values for wells containing cells are corrected for media absorbance, then normalized to initial density readings to determine percent net growth. IC50 values are determined from graphs of percent net growth as a function of compound concentration. Percent net growth is calculated as (Cell+Drug A490−Initial A490/Cell+Drug Vehicle A490−Initial A490).

PC-3 tumor xenografts = assay: PC-3 prostate carcinoma xenograft model; assay type: in vivo, athymic (nu/nu) mice
[1] = system: A549 non-small cell lung carcinoma; assay: Anchorage Dependent Growth Monolayer Assay (ADGMA), A549; assay type: cell-based, human; conditions: Homo sapiens, A549, 72 h; 3-day exposure, MTS readout; read-out: IC50 (average±S.D.) A549
Experimental: as §1, §2, §3, §4

HCT-116 colon carcinoma = assay: Anchorage Dependent Growth Monolayer Assay (ADGMA), HCT-116; assay type: cell-based, human; conditions: Homo sapiens, HCT-116, 72 h; 3-day exposure, MTS readout; read-out: IC50 (average±S.D.) HCT-116
Experimental: as §1, §2, §3, §4

HCT-116 tumor xenografts = assay: HCT-116 colon carcinoma xenograft model; assay type: in vivo, athymic (nu/nu) mice
Experimental: Positive controls are carried out with 5-fluorouracil administered 1 time per week i.v.

A549 tumor xenografts = system: A549 tumor xenografts
Description: Utilizing this model, one can measure the ability of test compounds to inhibit the growth of human tumor xenografts growing subcutaneously (s.c.) in athymic nude mice. The histologic tumor types employed were MDA-MB-435 breast, A549 non-small cell lung, HCT-116 colon and PC-3 prostate carcinomas.
A549 non-small cell lung carcinoma xenograft model: Briefly, 10 million cells were implanted s.c. into the right flank of athymic (nu/nu) mice, and were allowed to grow until a mass of approximately 120 mm^3 was established. The test compounds are administered three times per week intravenously (i.v.) for three weeks in 5% dextrose, 10%DMSO in water. The test compounds are administered in dose-response fashion in order to evaluate and document the full potential range of activity (efficacy and toxicity) for a given compound. Positive controls are carried out with mitomycin C administered 3 times per week intraperitioneally (i.p.).
Toxicity was monitored by recording average group body weights twice weekly, and by daily observation of general health. Efficacy was monitored by taking measurements of tumor length, width, and depth weekly using digital calipers coupled to automated data collectors. Mean tumor volume (MTV) at initiation of therapy was subtracted from final MTV in order to express the actual tumor growth during treatment (ΔMTV). Anti-tumor activity was expressed as %T/C (ΔMTV of treated group÷ΔMTV of control group×100). Regressions were calculated using the formula: (T/T0−1)×100%, where T is the tumor volume for the treatment group at the end of the experiment, and T0 is the tumor volume at the beginning of the experiment. Statistical significance was evaluated using a one-tailed Student's t-test (p<0.05).

[2] = system: MDA-MB-435 tumor xenografts; assay: MDA-MB-435 breast carcinoma xenograft model; assay type: in vivo, athymic (nu/nu) mice
Experimental: Positive controls are carried out with doxorubicin administered 3 times per week i.v.
The following results were obtained for compounds of Ex.1-Ex.12 tested against MDA-MB-435 tumor xenografts 3×/week for 3 weeks: […]

[3] = system: MDA-MB-435 breast carcinoma; assay: Anchorage Dependent Growth Monolayer Assay (ADGMA), MDA-MB-435; assay type: cell-based, human; conditions: 3-day exposure, MTS readout, read-out: IC50 (average±S.D.) MDA-MB-435
Experimental: as §1, §2
The MDA-MB-435 breast carcinoma line was obtained from the American Type Culture Collection (ATCC) and used between passages 4-20 following thawing. MDA-MB-435 breast carcinoma was maintained and plated in DME/F12 medium containing 10% fetal bovine serum, 15 mM HEPES (pH=7.4), 100 units/mL penicillin, and 100 μg/mL streptomycin.
as §4

[4] = 10 μmol/kg i.v. 3×/week for 3 weeks
[5] = 33 μmol/kg i.v. 3×/week for 3 weeks
[6] = 100 μmol/kg i.v. 3×/week for 3 weeks
[7] = 2 mg/kg i.v. 3 times per week (positive control)

CO[C@@H](C(=O)N[C@H]1CC[C@@H](OC(=O)C2CCCCC2)CNC1=O)[C@H](O)[C@@H](O)[C@H](O)/C=C/C(C)(C)C [Ex. 1, (2R, 3R, 4S, 5R, 6E)-3,4,5-Trihydroxy-2-methoxy-8,8-dimethyl-N-[(3S, 6R)-hexahydro-2-oxo-6-(cyclohexylcarbonyl)oxy-2H-azepin-3-yl]non-6-enamide]
IC50 (PC-3 prostate carcinoma): 39 ± 13 nM | % T/C (PC-3 tumor xenografts; [4]): 87% | Dead/Total (PC-3 tumor xenografts; [4]): 0/7 | Δ MTV (PC-3 tumor xenografts; [4]): 1931 mm^3 | % T/C (PC-3 tumor xenografts; [5]): 32% | Dead/Total (PC-3 tumor xenografts; [5]): 0/8 | Δ MTV (PC-3 tumor xenografts; [5]): 718 mm^3 | % T/C (PC-3 tumor xenografts; [6]): 8* % | Dead/Total (PC-3 tumor xenografts; [6]): 1/8 | Δ MTV (PC-3 tumor xenografts; [6]): 185 mm^3 | IC50 [1]: 78 ± 38 nM | IC50 (HCT-116 colon carcinoma): 41 ± 3 nM | % T/C (HCT-116 tumor xenografts; [4]): 89% | Dead/Total (HCT-116 tumor xenografts; [4]): 0/8 | Δ MTV (HCT-116 tumor xenografts; [4]): 360 mm^3 | % T/C (HCT-116 tumor xenografts; [5]): 35* % | Dead/Total (HCT-116 tumor xenografts; [5]): 0/8 | Δ MTV (HCT-116 tumor xenografts; [5]): 142 mm^3 | % T/C (HCT-116 tumor xenografts; [6]): 10* % | Dead/Total (HCT-116 tumor xenografts; [6]): 0/8 | Δ MTV (HCT-116 tumor xenografts; [6]): 42 mm^3 | % T/C (A549 tumor xenografts; [4]): 42% | Dead/Total (A549 tumor xenografts; [4]): 0/8 | Δ MTV (A549 tumor xenografts; [4]): 32 mm^3 | % T/C (A549 tumor xenografts; [5]): 38% | Dead/Total (A549 tumor xenografts; [5]): 0/8 | Δ MTV (A549 tumor xenografts; [5]): 29 mm^3 | % T/C (A549 tumor xenografts; [6]): 14* % | Dead/Total (A549 tumor xenografts; [6]): 1/8 | Δ MTV (A549 tumor xenografts; [6]): 11 mm^3 | % T/C [2, 4]: 61* % | Dead/Total [2, 4]: 0/8 | % T/C [2, 5]: 24* % | Dead/Total [2, 5]: 0/8 | % regression [2, 6]: 29 regression* % | Dead/Total [2, 6]: 0/8 | Δ MTV [2, 6]: −11 mm^3 | IC50 ([3]; Homo sapiens, MDA-MB-435, 72 h): 41 ± 26 nM

CO[C@@H](C(=O)N[C@H]1CC[C@@H](OC(=O)C2CCCCCC2)CNC1=O)[C@H](O)[C@@H](O)[C@H](O)/C=C/C(C)(C)C [Ex. 3, (2R, 3R, 4S, 5R, 6E)-3,4,5-Trihydroxy-2-methoxy-8,8-dimethyl-N-[(3S, 6R)-hexahydro-2-oxo-6(cylohpetylcarbonyl)oxy-2H-azepin-3-yl]non-6-enamide]
% T/C [2, 4]: 39* % | Dead/Total [2, 4]: 0/8 | % T/C [2, 5]: 28* % | Dead/Total [2, 5]: 0/8 | IC50 [3]: 32 ± 14 nM

CO[C@@H](C(=O)N[C@H]1CC[C@@H](OC(=O)CCc2cccnc2)CNC1=O)[C@H](O)[C@@H](O)[C@H](O)/C=C/C(C)(C)C [Ex. 5, (2R, 3R, 4S, 5R, 6E)-3,4,5-Trihydroxy-2-methoxy-8,8-dimethyl-N-[(3S, 6R)-hexahydro-2-oxo-6-(1-oxo-3-[3-pyridyl]propoxy)-2H-azepin-3-yl]non-6-enamide]
IC50 (PC-3 prostate carcinoma): 348 ± 26 nM | IC50 [1]: 1040 ± 758 nM | IC50 (HCT-116 colon carcinoma): 464 ± 142 nM | % T/C (HCT-116 tumor xenografts; [4]): 93% | Dead/Total (HCT-116 tumor xenografts; [4]): 0/8 | Δ MTV (HCT-116 tumor xenografts; [4]): 376 mm^3 | % T/C (HCT-116 tumor xenografts; [5]): 67* % | Dead/Total (HCT-116 tumor xenografts; [5]): 0/8 | Δ MTV (HCT-116 tumor xenografts; [5]): 270 mm^3 | % T/C (HCT-116 tumor xenografts; [6]): 28* % | Dead/Total (HCT-116 tumor xenografts; [6]): 0/8 | Δ MTV (HCT-116 tumor xenografts; [6]): 111 mm^3 | % T/C (A549 tumor xenografts; [4]): 50% | Dead/Total (A549 tumor xenografts; [4]): 0/8 | Δ MTV (A549 tumor xenografts; [4]): 38 mm^3 | % T/C (A549 tumor xenografts; [5]): 46% | Dead/Total (A549 tumor xenografts; [5]): 0/8 | Δ MTV (A549 tumor xenografts; [5]): 35 mm^3 | % T/C (A549 tumor xenografts; [6]): 24* % | Dead/Total (A549 tumor xenografts; [6]): 0/8 | Δ MTV (A549 tumor xenografts; [6]): 18 mm^3 | % T/C [2, 4]: 92% | Dead/Total [2, 4]: 0/8 | % T/C [2, 5]: 44* % | Dead/Total [2, 5]: 0/8

CO[C@@H](C(=O)N[C@H]1CC[C@@H](OC(=O)Cc2ccccc2)CNC1=O)[C@H](O)[C@@H](O)[C@H](O)/C=C/C(C)(C)C [Ex. 7, (2R, 3R, 4S, 5R, 6E)-3,4,5-Trihydroxy-2-methoxy-8,8-dimethyl-N-[(3S, 6R)-hexahydro-2-oxo-6-(1-oxo-2-phenylethoxy)-2H-azepin-3-yl]non-6-enamide.]
% T/C [2, 4]: 72% | Dead/Total [2, 4]: 0/8 | % T/C [2, 5]: 43* % | Dead/Total [2, 5]: 0/8 | IC50 [3]: 262 ± 70 nM

CCCCCCCCCCOc1ccc(C(=O)O[C@@H]2CC[C@H](NC(=O)[C@H](OC)[C@H](O)[C@@H](O)[C@H](O)/C=C/C(C)(C)C)C(=O)NC2)cc1 [Ex. 10, (2R, 3R, 4S, 5R, 6E)-3,4,5-Trihydroxy-2-methoxy-8,8-dimethyl-N-[(3S, 6R)-hexahydro-2-oxo-6-([4-n-decyloxyphenyl]carbonyl)oxy-2H-azepin-3-yl]non-6-enamide]
% T/C [2, 4]: 64* % | Dead/Total [2, 4]: 0/8 | % T/C [2, 5]: 2* % | Dead/Total [2, 5]: 0/8 | Δ MTV [2, 5]: 4 mm^3 | IC50 ([3]; Homo sapiens, MDA-MB-435, 72 h): 6 ± 4 nM

CCCCCCCCCCc1ccc(C(=O)O[C@@H]2CC[C@H](NC(=O)[C@H](OC)[C@H](O)[C@@H](O)[C@H](O)/C=C/C(C)(C)C)C(=O)NC2)cc1 [Ex. 12, (2R, 3R, 4S, 5R, 6E)-3,4,5-Trihydroxy-2-methoxy-8,8-dimethyl-N-[(3S, 6R)-hexahydro-2-oxo-6-([4-n-decylphenyl]carbonyl)oxy-2H-azepin-3-yl]non-6-enamide]
% T/C [2, 4]: 52% | Dead/Total [2, 4]: 0/8 | % T/C [2, 5]: 7* % | Dead/Total [2, 5]: 0/8 | IC50 ([3]; Homo sapiens, MDA-MB-435, 72 h): 27 ± 37 nM

CO[C@@H](C(=O)N[C@H]1CC[C@@H](OC(=O)Cc2c[nH]c3ccccc23)CNC1=O)[C@H](O)[C@@H](O)[C@H](O)/C=C/C(C)(C)C [Ex. 14, (2R, 3R, 4S, 5R, 6E)-3,4,5-Trihydroxy-2-methoxy-8,8-dimethyl-N-[(3S, 6R)-hexahydro-2-oxo-6-(1-oxo-3-[3-indolyl]ethoxy)-2H-azepin-3-yl]non-6-enamide]
IC50 [3]: 1240 ± 196 nM

COc1cccc2c1C(=O)c1c(O)c3c(c(O)c1C2=O)C[C@@](O)(C(=O)CO)C[C@@H]3O[C@H]1C[C@H](N)[C@H](O)[C@H](C)O1 [doxorubicin, reference compound]
IC50 (PC-3 prostate carcinoma): 327 ± 123 nM | IC50 [1]: 504 ± 320 nM | IC50 (HCT-116 colon carcinoma): 39 ± 6 nM | % T/C [2, 7]: 42* % | Dead/Total [2, 7]: 0/8 | IC50 ([3]; Homo sapiens, MDA-MB-435, 72 h): 399 ± 314 nM
